From patent US12240854B2, “TRAF 6 inhibitors” (Helmholtz Zentrum München - Deutsches Forschungszentrum für …, priority 2018, dated 2025)
Entries after “also recorded” stand apart in the source; their conditions may differ. Read-outs that look alike come from different tables or passages of the source.

Key:
[1] = target: T1, TRAF6WTStrepII-Ubc13FH interaction (Homo sapiens, UniProt Q9Y4K3); assay: ALPHAScreen TRAF6-Ubc13 interaction assay; format: binding
T1 construct: RING-Zincfinger1 (RZ1) domain (residues 50-159) of human TRAF6 wildtype; made in house; host or cells: E. coli BL21 codon plus RIPL
T1 sequence (Q9Y4K3 with tags, fused parts or gaps): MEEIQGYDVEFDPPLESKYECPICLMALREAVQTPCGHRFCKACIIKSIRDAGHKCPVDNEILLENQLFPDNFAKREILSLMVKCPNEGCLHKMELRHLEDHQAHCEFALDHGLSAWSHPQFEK
From the text: In order to identify small molecules that specifically target the RZ1 domain of TRAF6 and thereby prevent its binding to Ubc13, the ALPHAScreen technology (PerkinElmer) was chosen to detect TRAF6WTStrepII-Ubc13FH interaction in High-Throughput-Screenings as well as Structure Activity Relationship (SAR) analysis.
For performance of an automated ALPHAScreen assay, all following components were pre-diluted in ALPHAScreen buffer (1×PBS, 0.5% BSA, 0.01% Tween-20). First, the TRAF6 protein (end concentration 100 nM, 30 μL volume) was added to 384-well-opti-plates involving the MultiFlo dispensing system (BioTek) followed by transfer of the compounds via the Sciclone G3 transfer station (PerkinElmer). After addition of Ubc13FH (end concentration 75 nM, 10 μL volume) with the MultiFlo system and incubation for one hour at room temperature, both beads (Strep-Tactin Alpha Donor beads and Nickel-Chelate acceptor beads; end concentrations 4 μg each, 10 μL volume each) were mixed and added using the MultiFlo system in subdued light. Read-out of the plates occurred after another hour of incubation at room temperature. Statistical parameters including the coefficient of variation, Z′ factor and signal window were calculated to determine the quality of the HTS campaign. To evaluate the efficacy of the compounds, ALPHAScreen units of compound-treated samples were referred to DMSO control treated samples. Thereby, the TRAF6D57K mutant served as the control for minimum signal and was included on every plate of the screening. Compounds that inhibited TRAF6WTStrepII-Ubc13FH by more than 25% were considered as actives. After elimination of ALPHAScreen frequent hitter compounds and His-tag frequent hitters (Schorpp, K., I. Rothenaigner, E. Salmina, et al., Identification of Small-Molecule Frequent Hitters from AlphaScreen High-Throughput Screens. J Biomol Screen, 2014. 19(5): p. 715-26), 178 compounds were defined as primary hits and were subsequently tested in five-point serial dilution assays (2.5-40 μM) in TRAF6WTStrepII-Ubc13FH ALPHAScreen experiments. Only compounds with dose-dependent effects on TRAF6WTStrepII-Ubc13FH (n=27) were taken for further research. For analog testing, all compounds were analyzed in ten-point titration (0.2-100 μM) in TRAF6WTStrepII-Ubc13FH ALPHAScreen experiments. In parallel, the compounds were tested in the ALPHAScreen TruHits Kit (PerkinElmer) to rule out unspecific interference with the ALPHAScreen technology.

[2] = target: T2, TRAF6-Ubc13 binding in HEK293T cells (Homo sapiens, UniProt Q9Y4K3); assay: Co-immunoprecipitation of HA-TRAF6 and Ubc13 in HEK 293T cells; format: cell-based
T2 construct: RING-Zincfinger1 (RZ1) domain (residues 50-159) of human TRAF6 wildtype; expressed in transfected cells; host or cells: HEK 293T
T2 sequence (Q9Y4K3 50-159): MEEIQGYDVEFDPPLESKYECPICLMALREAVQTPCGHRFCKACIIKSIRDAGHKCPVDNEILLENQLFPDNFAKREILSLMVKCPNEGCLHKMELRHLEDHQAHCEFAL
Procedure: To study the interaction of TRAF6 and Ubc13 in cells, 1×10^6 293T cells were seeded and after 18 hours cells were transfected with 1 μg pEF-HA empty or pEF-HA-TRAF6 RZ1 plasmid using the X-tremeGENE HP DNA transfection reagent (Roche). 6 hours upon transfection, cells were treated with compound or DMSO. After 42 hours further incubation, cells were harvested in Co-IP lysis buffer and HA-TRAF6 was immunoprecipitated with anti-HA affinity matrix (Roche). Binding of Ubc13 to TRAF6 was examined in Western Blot analysis.

Compound | inhibition of TRAF6-Ubc13 interaction in ALPHAScreen (in words) [1] | interaction of endogenous Ubc13 with HA-tagged TRAF6 (co-immunoprecipitation) [2] | interaction of endogenous Ubc13 with HA-tagged TRAF6 (co-immunoprecipitation) ([2]; listed as HZM06-04) | interaction of endogenous Ubc13 with HA-tagged TRAF6 (co-immunoprecipitation) ([2]; listed as HZM06-09) | interaction of endogenous Ubc13 with HA-tagged TRAF6 (co-immunoprecipitation) ([2]; listed as HZM06-08)
Cc1nn(-c2ccc3nnc(C)n3n2)c(C)c1CCC(=O)N1CCC(Cc2ccccc2)C1 (centres unmarked) [HZM06-4, 1-(3-benzylpyrrolidin-1-yl)-3-(3,5-dimethyl-1-(3-methyl-[1,2,4]triazolo[4,3-b]pyridazin-6-yl)-1H-pyrazol-4-yl)propan-1-one] | most prominent effect | also active in cells; also recorded: most active analogs | demonstrated inhibition of TRAF6-Ubc13 binding |  | 
COc1cccc(CN2CCN(C(=O)CCc3c(C)nn(-c4ccc5nnc(C)n5n4)c3C)CC2)c1 [HZM06-2, 1-(4-(3-methoxybenzyl)piperazin-1-yl)-3-(3,5-dimethyl-1-(3-methyl-[1,2,4]triazolo[4,3-b]pyridazin-6-yl)-1H-pyrazol-4-yl)propan-1-one] |  | also active in cells |  |  | 
Cc1nn(-c2ccc3nnc(C)n3n2)c(C)c1CCC(=O)N1CCC(Cc2ccc(F)cc2)CC1 [HZM06-9, 1-(4-(4-fluorobenzyl)piperidin-1-yl)-3-(3,5-dimethyl-1-(3-methyl-[1,2,4]triazolo[4,3-b]pyridazin-6-yl)-1H-pyrazol-4-yl)propan-1-one] |  | also active in cells; also recorded: most active analogs |  | demonstrated inhibition of TRAF6-Ubc13 binding | 
COc1cccc(CC2CCN(C(=O)CCc3c(C)nn(-c4ccc5nnc(C)n5n4)c3C)CC2)c1 [HZM06-8, 1-(4-(3-methoxybenzyl)piperidin-1-yl)-3-(3,5-dimethyl-1-(3-methyl-[1,2,4]triazolo[4,3-b]pyridazin-6-yl)-1H-pyrazol-4-yl)propan-1-one] |  | also active in cells; also recorded: most active analogs |  |  | demonstrated inhibition of TRAF6-Ubc13 binding
